Molecules are shown by their SMILES.

In one test the target is T1, mTOR (Homo sapiens, UniProt P42345).
T1 construct: FLAG; made in house
T1 sequence (P42345 1362-2549): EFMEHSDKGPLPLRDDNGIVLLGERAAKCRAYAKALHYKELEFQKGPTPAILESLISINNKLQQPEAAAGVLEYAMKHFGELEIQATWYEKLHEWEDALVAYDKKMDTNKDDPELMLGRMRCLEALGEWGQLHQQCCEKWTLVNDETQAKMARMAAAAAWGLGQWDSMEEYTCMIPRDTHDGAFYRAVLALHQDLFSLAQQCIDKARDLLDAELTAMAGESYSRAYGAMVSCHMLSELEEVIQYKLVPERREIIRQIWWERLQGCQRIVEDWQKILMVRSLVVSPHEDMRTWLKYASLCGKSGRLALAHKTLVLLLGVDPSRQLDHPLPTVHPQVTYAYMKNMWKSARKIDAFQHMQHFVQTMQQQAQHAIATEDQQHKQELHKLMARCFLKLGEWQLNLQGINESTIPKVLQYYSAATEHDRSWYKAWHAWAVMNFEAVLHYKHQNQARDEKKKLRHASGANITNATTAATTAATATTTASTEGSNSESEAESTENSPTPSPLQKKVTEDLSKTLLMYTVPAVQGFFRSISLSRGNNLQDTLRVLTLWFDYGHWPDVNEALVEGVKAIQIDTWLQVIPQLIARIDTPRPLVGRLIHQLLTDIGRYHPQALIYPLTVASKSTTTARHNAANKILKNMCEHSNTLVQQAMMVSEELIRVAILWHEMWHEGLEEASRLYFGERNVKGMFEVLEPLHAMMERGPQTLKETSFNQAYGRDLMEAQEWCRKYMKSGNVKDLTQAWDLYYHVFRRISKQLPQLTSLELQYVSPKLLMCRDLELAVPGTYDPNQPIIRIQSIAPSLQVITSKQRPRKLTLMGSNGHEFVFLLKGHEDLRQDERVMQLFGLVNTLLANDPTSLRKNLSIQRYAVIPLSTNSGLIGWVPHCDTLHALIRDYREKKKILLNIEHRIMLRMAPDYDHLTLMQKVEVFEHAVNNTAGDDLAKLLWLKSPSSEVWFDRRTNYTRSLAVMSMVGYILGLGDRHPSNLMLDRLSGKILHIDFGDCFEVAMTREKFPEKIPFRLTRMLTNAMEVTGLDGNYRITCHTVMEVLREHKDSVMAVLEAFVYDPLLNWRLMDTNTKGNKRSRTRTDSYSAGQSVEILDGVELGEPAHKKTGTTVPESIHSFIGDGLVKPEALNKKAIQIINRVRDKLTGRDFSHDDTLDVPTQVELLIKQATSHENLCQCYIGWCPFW
Put plainly: In Vitro mTOR Kinase Assay (Echo), Test (a)(ii). The format is biochemical. Conditions: read-out: mTOR Kinase Assay (Echo). The gist of the method:
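Compounds were acoustically dispensed, then incubated with FLAG-tagged mTOR (1362-2549) for 2 hours at room temperature. Reactions were quenched with EDTA plus detection antibody and AlphaScreen beads and left overnight in the dark before reading. Loss of phospho-T389 signal gave IC50 values.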
Regarding `CC(C)S(=O)(=O)C1(c2cc(N3CCOC[C@@H]3C)nc(-c3ccc(NC(=O)NC4CC4)cc3)n2)CC1` [Example 7d, 3-cyclopropyl-1-[4-[4-[(3S)-3-methylmorpholin-4-yl]-6-(1-propan-2-ylsulfonylcyclopropyl)pyrimidin-2-yl]phenyl]urea], the IC50 is 3.8 nM. The same measure, in the same setting: as for `CC(C)S(=O)(=O)C1(c2cc(N3CCOC[C@@H]3C)nc(-c3ccc(NC(=O)NCCO)cc3)n2)CC1` [Example 7e, 3-(2-hydroxyethyl)-1-[4-[4-[(3S)-3-methylmorpholin-4-yl]-6-(1-propan-2-ylsulfonylcyclopropyl)pyrimidin-2-yl]phenyl]urea], the figure is 2.12 nM; as for `CC(C)S(=O)(=O)C1(c2cc(N3CCOC[C@@H]3C)nc(-c3ccc(NC(=O)NC(C)(C)CO)cc3)n2)CC1` [Example 7f, 3-(1-hydroxy-2-methyl-propan-2-yl)-1-[4-[4-[(3S)-3-methylmorpholin-4-yl]-6-(1-propan-2-ylsulfonylcyclopropyl)pyrimidin-2-yl]phenyl]urea], 9.15 nM; as for `CC(C)S(=O)(=O)C1(c2cc(N3CCOC[C@@H]3C)nc(-c3ccc(NC(=O)NCCN(C)C)cc3)n2)CC1` [Example 7g, 3-(2-dimethylaminoethyl)-1-[4-[4-[(3S)-3-methylmorpholin-4-yl]-6-(1-propan-2-ylsulfonylcyclopropyl)pyrimidin-2-yl]phenyl]urea], 211 nM. On the same count and under the same terms, as for `CCCNC(=O)Nc1ccc(-c2nc(N3CCOC[C@@H]3C)cc(C3(S(=O)(=O)C(C)C)CC3)n2)cc1` [Example 7h, 3-[4-[4-[(3S)-3-methylmorpholin-4-yl]-6-(1-propan-2-ylsulfonylcyclopropyl)pyrimidin-2-yl]phenyl]-1-propyl-urea], the figure is 11.6 nM. Same read-out and setting: with `CC(C)CNC(=O)Nc1ccc(-c2nc(N3CCOC[C@@H]3C)cc(C3(S(=O)(=O)C(C)C)CC3)n2)cc1` [Example 7i, 1-[4-[4-[(3S)-3-methylmorpholin-4-yl]-6-(1-propan-2-ylsulfonylcyclopropyl)pyrimidin-2-yl]phenyl]-3-(2-methylpropyl)urea] the figure was 18.2 nM; with `CC(C)S(=O)(=O)C1(c2cc(N3CCOC[C@@H]3C)nc(-c3ccc(NC(=O)NCCCO)cc3)n2)CC1` [Example 7j, 3-(3-hydroxypropyl)-1-[4-[4-[(3S)-3-methylmorpholin-4-yl]-6-(1-propan-2-ylsulfonylcyclopropyl)pyrimidin-2-yl]phenyl]urea], 10.5 nM; with `CC(C)S(=O)(=O)C1(c2cc(N3CCOC[C@@H]3C)nc(-c3ccc(NC(=O)Nc4ccc(C(F)(F)F)cc4)cc3)n2)CC1` [Example 7k, 1-[4-[4-[(3S)-3-methylmorpholin-4-yl]-6-(1-propan-2-ylsulfonylcyclopropyl)pyrimidin-2-yl]phenyl]-3-[4-(trifluoromethyl)phenyl]urea], 4.82 nM.

For the molecule `CC(C)S(=O)(=O)C1(c2cc(N3CCOC[C@@H]3C)nc(-c3ccc(NC(=O)Nc4ccccn4)cc3)n2)CC1` [Example 7l, 1-[4-[4-[(3S)-3-methylmorpholin-4-yl]-6-(1-propan-2-ylsulfonylcyclopropyl)pyrimidin-2-yl]phenyl]-3-pyridin-2-yl-urea], the IC50 came to 9.13 nM.

Regarding `CC(C)S(=O)(=O)C1(c2cc(N3CCOC[C@@H]3C)nc(-c3ccc(NC(=O)Nc4cnn(C)c4)cc3)n2)CC1` [Example 7m, 1-[4-[4-[(3S)-3-methylmorpholin-4-yl]-6-(1-propan-2-ylsulfonylcyclopropyl)pyrimidin-2-yl]phenyl]-3-(1-methylpyrazol-4-yl)urea], the IC50 was found to be 5.04 nM. With `CNC(=O)Nc1ccc(-c2nc(N3CCOC[C@@H]3C)cc(C3(S(=O)(=O)c4ccc(F)cc4)CC3)n2)cc1` [Example 8, 1-[4-[4-[1-(4-Fluorophenyl)sulfonylcyclopropyl]-6-[(3S)-3-methylmorpholin-4-yl]pyrimidin-2-yl]phenyl]-3-methyl-urea], the IC50 is 0.576 nM. In the case of `CCNC(=O)Nc1ccc(-c2nc(N3CCOC[C@@H]3C)cc(C3(S(=O)(=O)c4ccc(F)cc4)CC3)n2)cc1` [Example 8a, 1-ethyl-3-[4-[4-[1-(4-fluorophenyl)sulfonylcyclopropyl]-6-[(3S)-3-methylmorpholin-4-yl]pyrimidin-2-yl]phenyl]urea], the IC50 was 0.96 nM. On the same count and under the same terms, as for `C[C@H]1COCCN1c1cc(C2(S(=O)(=O)c3ccc(F)cc3)CC2)nc(-c2ccc(NC(=O)NC3CC3)cc2)n1` [Example 8b, 3-cyclopropyl-1-[4-[4-[1-(4-fluorophenyl)sulfonylcyclopropyl]-6-[(3S)-3-methylmorpholin-4-yl]pyrimidin-2-yl]phenyl]urea], the figure is 1.23 nM; as for `CC(C)NC(=O)Nc1ccc(-c2nc(N3CCOC[C@@H]3C)cc(C3(S(=O)(=O)c4ccc(F)cc4)CC3)n2)cc1` [Example 8c, 1-[4-[4-[1-(4-fluorophenyl)sulfonylcyclopropyl]-6-[(3S)-3-methylmorpholin-4-yl]pyrimidin-2-yl]phenyl]-3-propan-2-yl-urea], 1.85 nM. On the same count and under the same terms, with `C[C@H]1COCCN1c1cc(C2(S(=O)(=O)c3ccc(F)cc3)CC2)nc(-c2ccc(NC(=O)NC3CCC3)cc2)n1` [Example 8d, 3-cyclobutyl-1-[4-[4-[1-(4-fluorophenyl)sulfonylcyclopropyl]-6-[(3S)-3-methylmorpholin-4-yl]pyrimidin-2-yl]phenyl]urea] the figure was 1.34 nM. Still for that read-out and setting: with `C[C@H]1COCCN1c1cc(C2(S(=O)(=O)c3ccc(F)cc3)CC2)nc(-c2ccc(NC(=O)NC(C)(C)CO)cc2)n1` [Example 8f, 1-[4-[4-[1-(4-fluorophenyl)sulfonylcyclopropyl]-6-[(3S)-3-methylmorpholin-4-yl]pyrimidin-2-yl]phenyl]-3-(1-hydroxy-2-methyl-propan-2-yl)urea] the figure was 8.82 nM; with `C[C@H]1COCCN1c1cc(C2(S(=O)(=O)c3ccc(F)cc3)CC2)nc(-c2ccc(NC(=O)NCCN(C)C)cc2)n1` [Example 8g, 3-(2-dimethylaminoethyl)-1-[4-[4-[1-(4-fluorophenyl)sulfonylcyclopropyl]-6-[(3S)-3-methylmorpholin-4-yl]pyrimidin-2-yl]phenyl]urea], 61.3 nM.

As to `CCCNC(=O)Nc1ccc(-c2nc(N3CCOC[C@@H]3C)cc(C3(S(=O)(=O)c4ccc(F)cc4)CC3)n2)cc1` [Example 8h, 3-[4-[4-[1-(4-fluorophenyl)sulfonylcyclopropyl]-6-[(3S)-3-methylmorpholin-4-yl]pyrimidin-2-yl]phenyl]-1-propyl-urea], the IC50 came to 1.76 nM. On the same count and under the same terms, as for `CC(C)CNC(=O)Nc1ccc(-c2nc(N3CCOC[C@@H]3C)cc(C3(S(=O)(=O)c4ccc(F)cc4)CC3)n2)cc1` [Example 8i, 1-[4-[4-[1-(4-fluorophenyl)sulfonylcyclopropyl]-6-[(3S)-3-methylmorpholin-4-yl]pyrimidin-2-yl]phenyl]-3-(2-methylpropyl)urea], the figure is 19.8 nM; as for `C[C@H]1COCCN1c1cc(C2(S(=O)(=O)c3ccc(F)cc3)CC2)nc(-c2ccc(NC(=O)NCCCO)cc2)n1` [Example 8j, 1-[4-[4-[1-(4-fluorophenyl)sulfonylcyclopropyl]-6-[(3S)-3-methylmorpholin-4-yl]pyrimidin-2-yl]phenyl]-3-(3-hydroxypropyl)urea], 0.751 nM. The same measure, in the same setting: as for `C[C@H]1COCCN1c1cc(C2(S(=O)(=O)c3ccc(F)cc3)CC2)nc(-c2ccc(NC(=O)Nc3ccc(C(F)(F)F)cc3)cc2)n1` [Example 8k, 1-[4-[4-[1-(4-fluorophenyl)sulfonylcyclopropyl]-6-[(3S)-3-methylmorpholin-4-yl]pyrimidin-2-yl]phenyl]-3-[4-(trifluoromethyl)phenyl]urea], the figure is 17.3 nM; as for `C[C@H]1COCCN1c1cc(C2(S(=O)(=O)c3ccc(F)cc3)CC2)nc(-c2ccc(NC(=O)Nc3cnn(C)c3)cc2)n1` [Example 8m, 1-[4-[4-[1-(4-fluorophenyl)sulfonylcyclopropyl]-6-[(3S)-3-methylmorpholin-4-yl]pyrimidin-2-yl]phenyl]-3-(1-methylpyrazol-4-yl)urea], 1.36 nM; as for `C[C@H]1COCCN1c1cc(C2(S(=O)(=O)C3CCCC3)CC2)nc(-c2ccc(NC(=O)NC3CC3)cc2)n1` [Example 9, 1-[4-[4-(1-Cyclopentylsulfonylcyclopropyl)-6-[(3S)-3-methylmorpholin-4-yl]pyrimidin-2-yl]phenyl]-3-cyclopropyl-urea], 1.8 nM. With `C[C@H]1COCCN1c1cc(C2(S(=O)(=O)C3CCCC3)CC2)nc(-c2ccc(NC(=O)NC3CCC3)cc2)n1` [Example 9a], the IC50 came out at 12.9 nM. With `CC(C)NC(=O)Nc1ccc(-c2nc(N3CCOC[C@@H]3C)cc(C3(S(=O)(=O)C4CCCC4)CC3)n2)cc1` [Example 9d], the IC50 came out at 15.1 nM. For the molecule `CCNC(=O)Nc1ccc(-c2nc(N3CCOC[C@@H]3C)cc(C3(S(=O)(=O)C4CCCC4)CC3)n2)cc1` [Example 9e], the IC50 turned out to be 1.87 nM. For `CCCNC(=O)Nc1ccc(-c2nc(N3CCOC[C@@H]3C)cc(C3(S(=O)(=O)C4CCCC4)CC3)n2)cc1` [Example 9h], the IC50 is 5.7 nM. `CNC(=O)Nc1ccc(-c2nc(N3CCOC[C@@H]3C)cc(C3(S(=O)(=O)C4CCCC4)CC3)n2)cc1` [Example 9i]: the IC50 came out at 2.4 nM. Turning to `C[C@H]1COCCN1c1cc(C2(S(=O)(=O)C3CCCC3)CC2)nc(-c2ccc(NC(=O)NC(C)(C)CO)cc2)n1` [Example 9k], the IC50 turned out to be 11.5 nM. Still for that read-out and setting: as for `C[C@H]1COCCN1c1cc(C2(S(=O)(=O)c3ccccc3C(F)(F)F)CC2)nc(-c2ccc(NC(=O)NC3CC3)cc2)n1` [Example 10, 3-Cyclopropyl-1-[4-[4-[(3S)-3-methylmorpholin-4-yl]-6-[1-[2-(trifluoromethyl)phenyl]sulfonylcyclopropyl]pyrimidin-2-yl]phenyl]urea], the figure is 4.48 nM.

The test is the same for the next values; noted with them: table of enzyme assay Test (a)(ii); read-out: Test (a)(ii) IC50.
For `CNC(=O)Nc1ccc(-c2nc(N3CCOC[C@@H]3C)cc(C3(S(=O)(=O)c4ccc(F)cc4)CC3)n2)cc1` [Example 8, 1-[4-[4-[1-(4-Fluorophenyl)sulfonylcyclopropyl]-6-[(3S)-3-methylmorpholin-4-yl]pyrimidin-2-yl]phenyl]-3-methyl-urea], the IC50 was determined as 0.959 nM. Consider `C[C@H]1COCCN1c1cc(C2(S(=O)(=O)c3ccc(F)cc3)CC2)nc(-c2ccc(NC(=O)NCCN(C)C)cc2)n1` [Example 8g, 3-(2-dimethylaminoethyl)-1-[4-[4-[1-(4-fluorophenyl)sulfonylcyclopropyl]-6-[(3S)-3-methylmorpholin-4-yl]pyrimidin-2-yl]phenyl]urea], for which the IC50 amounted to 78.4 nM.

For the molecule `C[C@H]1COCCN1c1cc(C2(S(=O)(=O)c3ccc(F)cc3)CC2)nc(-c2ccc(NC(=O)Nc3ccccn3)cc2)n1` [Example 8l, 1-[4-[4-[1-(4-fluorophenyl)sulfonylcyclopropyl]-6-[(3S)-3-methylmorpholin-4-yl]pyrimidin-2-yl]phenyl]-3-pyridin-2-yl-urea], the IC50 was determined as 8.13 nM.

The values above are taken from patent publication US20090018134A1, “Compounds - 945” (AstraZeneca AB, priority 2007, published 2009).
